The test system of experiment [1] is Epidermal growth factor receptor (Homo sapiens), P00533 [L858R,T790M]. The experiment can be described thus: (§1) Selectivity interaction (Kinase panel (Z-LYTE Assay)) EUB0001632a EGFR. The note with it: at 10 µM.
The subject of experiment [2] is Epidermal growth factor receptor (Homo sapiens), P00533 [L858R]. The experiment is described as §1. To be noted: at 10 µM.
Experiment [3] relates to Epidermal growth factor receptor (Homo sapiens), P00533 [L861Q]. The description is as §1. The note with it: at 10 µM.
The subject of experiment [4] is Epidermal growth factor receptor (Homo sapiens), P00533 [T790M]. The experiment is described as §1. To be noted: at 10 µM.
The target of experiment [5] is Epidermal growth factor receptor (Homo sapiens, UniProt P00533). The experiment is described as §1. The note with it: at 10 µM.
Experiment [6] addresses Mitogen-activated protein kinase 9 (Homo sapiens, UniProt P45984). Description: Selectivity interaction (ActivX KiNativ screen (ex vivo kinase selectivity in human PBMCs)) EUB0001619a MAPK9. The format is cell-based. To be noted: PBMC, at 1 µM.
Experiment [7] has as its target RAC-alpha serine/threonine-protein kinase (Homo sapiens, UniProt P31749). Description: Selectivity interaction (KinomeScan (DiscoverX)) EUB0000607a AKT1. The note with it: at 10 µM.
Experiment [8] has as its target Cyclin-dependent kinase 14 (Homo sapiens) (UniProt O94921). The experiment can be described thus: Selectivity interaction (ActivX KiNativ screen (kinase selectivity in THP-1 cell lysates)) EUB0000639a CDK14. The format is subcellular. The note with it: lysate.
For experiment [9], the target named is Dual specificity protein kinase CLK2 (Homo sapiens, UniProt P49760). The experiment can be described thus: Selectivity interaction (KinomeScan (DiscoverX)) EUB0000045b CLK2.
In experiment [10] the test system is Epidermal growth factor receptor (Homo sapiens), P00533 [UNDEFINED MUTATION]. Description: Selectivity interaction (Ambit KINOMEscan and KiNATiv profiling in Jurkat cells) EUB0000090b EGFR. It counts as cell-based. The note with it: at 1 µM.
The target of experiment [11] is T1, Homeodomain-interacting protein kinase 4 (Homo sapiens) (UniProt Q8NE63).
T1 sequence (whole entry): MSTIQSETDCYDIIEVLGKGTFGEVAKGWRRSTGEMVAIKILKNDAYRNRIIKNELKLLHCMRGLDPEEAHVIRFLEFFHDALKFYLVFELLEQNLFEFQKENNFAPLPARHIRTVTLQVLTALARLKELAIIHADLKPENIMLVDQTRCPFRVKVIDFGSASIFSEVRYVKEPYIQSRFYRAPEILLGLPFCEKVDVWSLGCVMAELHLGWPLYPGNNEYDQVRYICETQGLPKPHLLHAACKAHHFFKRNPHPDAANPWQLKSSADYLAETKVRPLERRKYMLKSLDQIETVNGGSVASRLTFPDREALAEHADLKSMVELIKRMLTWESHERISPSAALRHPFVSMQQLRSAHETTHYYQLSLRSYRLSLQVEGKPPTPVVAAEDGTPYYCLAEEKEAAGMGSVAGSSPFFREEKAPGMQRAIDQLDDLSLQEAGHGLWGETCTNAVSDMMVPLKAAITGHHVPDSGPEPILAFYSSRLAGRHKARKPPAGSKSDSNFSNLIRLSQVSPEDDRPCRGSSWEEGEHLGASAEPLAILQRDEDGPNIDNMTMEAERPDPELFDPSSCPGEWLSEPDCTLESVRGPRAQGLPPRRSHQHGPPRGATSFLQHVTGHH
The experiment can be described thus: Selectivity interaction (Ambit KINOMEscan and KiNATiv profiling in Jurkat cells) EUB0000090b HIPK4. The format is cell-based. To be noted: at 1 µM.

Experiment [12] has as its target Serine/threonine-protein kinase MRCK beta (Homo sapiens) (UniProt Q9Y5S2). The experiment can be described thus: Selectivity interaction (KinomeScan (DiscoverX)) EUB0001049a CDC42BPB. To be noted: at 1 µM.
In experiment [13] the target is T2, Mitogen-activated protein kinase kinase kinase 19 (Homo sapiens) (UniProt Q56UN5).
T2 sequence (whole entry): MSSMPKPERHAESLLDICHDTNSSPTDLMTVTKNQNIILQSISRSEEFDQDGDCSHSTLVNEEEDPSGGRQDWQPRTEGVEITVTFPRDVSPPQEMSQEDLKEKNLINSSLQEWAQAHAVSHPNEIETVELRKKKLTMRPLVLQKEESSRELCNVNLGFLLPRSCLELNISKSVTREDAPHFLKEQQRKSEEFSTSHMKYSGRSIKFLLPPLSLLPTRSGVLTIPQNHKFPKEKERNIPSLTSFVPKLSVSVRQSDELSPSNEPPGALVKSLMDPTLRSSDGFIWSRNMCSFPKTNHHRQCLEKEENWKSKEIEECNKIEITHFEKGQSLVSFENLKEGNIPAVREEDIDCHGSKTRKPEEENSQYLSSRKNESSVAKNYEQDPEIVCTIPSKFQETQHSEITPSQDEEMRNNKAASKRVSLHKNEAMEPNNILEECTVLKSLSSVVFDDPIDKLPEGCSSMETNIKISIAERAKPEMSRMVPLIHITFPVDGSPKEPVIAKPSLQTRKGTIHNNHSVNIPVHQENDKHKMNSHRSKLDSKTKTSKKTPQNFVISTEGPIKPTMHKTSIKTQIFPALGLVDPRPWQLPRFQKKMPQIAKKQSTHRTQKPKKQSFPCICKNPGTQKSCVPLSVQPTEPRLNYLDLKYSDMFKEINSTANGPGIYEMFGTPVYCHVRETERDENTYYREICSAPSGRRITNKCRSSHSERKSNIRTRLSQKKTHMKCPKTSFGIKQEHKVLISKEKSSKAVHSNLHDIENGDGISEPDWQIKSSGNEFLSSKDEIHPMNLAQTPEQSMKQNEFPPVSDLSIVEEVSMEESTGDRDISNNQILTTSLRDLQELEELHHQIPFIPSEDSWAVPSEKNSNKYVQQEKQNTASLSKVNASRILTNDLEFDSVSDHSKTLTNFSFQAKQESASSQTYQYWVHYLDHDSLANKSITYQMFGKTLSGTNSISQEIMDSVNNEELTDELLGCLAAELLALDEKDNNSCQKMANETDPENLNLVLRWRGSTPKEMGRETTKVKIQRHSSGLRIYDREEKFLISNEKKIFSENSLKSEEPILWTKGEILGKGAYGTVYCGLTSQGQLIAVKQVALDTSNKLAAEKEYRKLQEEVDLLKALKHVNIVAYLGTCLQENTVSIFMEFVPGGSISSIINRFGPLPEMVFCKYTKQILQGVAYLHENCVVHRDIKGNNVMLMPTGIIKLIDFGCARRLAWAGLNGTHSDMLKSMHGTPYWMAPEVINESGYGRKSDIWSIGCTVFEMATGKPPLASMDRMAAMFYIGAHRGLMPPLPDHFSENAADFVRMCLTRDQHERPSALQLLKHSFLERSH
The experiment can be described thus: Selectivity interaction (KinomeScan (DiscoverX)) EUB0001049a MAP3K19. The note with it: at 1 µM.

The target in experiment [14] is Rho-associated protein kinase 1 (Homo sapiens) (UniProt Q13464). Description: Selectivity interaction (Upstate Kinase Profiler service (Millipore)) EUB0000056c ROCK1. The note with it: at 1 µM.
Experiment [15] concerns the target Protein arginine N-methyltransferase 1 (Homo sapiens, UniProt Q99873). The experiment can be described thus: Selectivity interaction (Methyltransferase screen (radiometric assays, panel of 8 PRMTs, 21 protein lysine methyltransferases, 3 DNA methyltransferases, and one RNA methyltransferase)) EUB0000271b PRMT1.

Sequence of Cyclin-dependent kinase 14 (Homo sapiens) (O94921 whole entry): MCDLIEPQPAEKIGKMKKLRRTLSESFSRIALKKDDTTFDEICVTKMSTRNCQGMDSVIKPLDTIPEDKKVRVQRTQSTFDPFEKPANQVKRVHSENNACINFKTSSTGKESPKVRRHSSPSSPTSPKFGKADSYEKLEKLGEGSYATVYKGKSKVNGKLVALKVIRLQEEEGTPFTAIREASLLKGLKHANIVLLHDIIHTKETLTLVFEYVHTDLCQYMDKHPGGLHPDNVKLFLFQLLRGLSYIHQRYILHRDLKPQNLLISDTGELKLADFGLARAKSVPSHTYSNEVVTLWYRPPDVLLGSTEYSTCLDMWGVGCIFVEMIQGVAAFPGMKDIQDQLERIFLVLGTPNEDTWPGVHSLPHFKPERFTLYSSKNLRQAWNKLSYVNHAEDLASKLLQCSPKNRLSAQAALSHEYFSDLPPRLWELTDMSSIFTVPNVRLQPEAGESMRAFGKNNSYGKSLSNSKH
Sequence of Dual specificity protein kinase CLK2 (P49760 whole entry, looked up): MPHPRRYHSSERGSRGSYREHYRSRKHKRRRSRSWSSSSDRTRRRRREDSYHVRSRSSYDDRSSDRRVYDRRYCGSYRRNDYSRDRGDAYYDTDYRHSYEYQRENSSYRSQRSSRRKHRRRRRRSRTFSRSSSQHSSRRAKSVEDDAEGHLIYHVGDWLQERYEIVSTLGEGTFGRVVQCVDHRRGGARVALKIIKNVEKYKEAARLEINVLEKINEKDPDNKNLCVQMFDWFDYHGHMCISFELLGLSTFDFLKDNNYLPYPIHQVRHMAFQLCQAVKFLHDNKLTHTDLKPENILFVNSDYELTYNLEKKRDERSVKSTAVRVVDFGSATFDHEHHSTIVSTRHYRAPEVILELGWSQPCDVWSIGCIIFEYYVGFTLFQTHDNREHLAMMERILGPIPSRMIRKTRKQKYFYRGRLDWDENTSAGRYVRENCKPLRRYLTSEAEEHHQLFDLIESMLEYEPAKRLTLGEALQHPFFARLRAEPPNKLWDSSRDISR
Sequence of Protein arginine N-methyltransferase 1 (Q99873 whole entry, looked up): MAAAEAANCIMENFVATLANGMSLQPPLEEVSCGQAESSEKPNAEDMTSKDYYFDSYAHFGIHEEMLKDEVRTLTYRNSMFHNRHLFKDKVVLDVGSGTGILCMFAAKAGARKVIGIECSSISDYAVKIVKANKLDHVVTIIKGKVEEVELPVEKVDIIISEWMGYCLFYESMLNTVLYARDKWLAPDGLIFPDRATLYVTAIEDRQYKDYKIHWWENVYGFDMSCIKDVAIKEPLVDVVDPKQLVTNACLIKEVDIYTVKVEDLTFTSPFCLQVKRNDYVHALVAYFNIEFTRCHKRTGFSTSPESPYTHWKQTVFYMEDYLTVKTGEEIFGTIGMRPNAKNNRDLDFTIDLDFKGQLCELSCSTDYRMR
Sequence of Epidermal growth factor receptor (Homo sapiens), P00533 [L858R,T790M] (P00533 whole entry T790M/L858R, looked up): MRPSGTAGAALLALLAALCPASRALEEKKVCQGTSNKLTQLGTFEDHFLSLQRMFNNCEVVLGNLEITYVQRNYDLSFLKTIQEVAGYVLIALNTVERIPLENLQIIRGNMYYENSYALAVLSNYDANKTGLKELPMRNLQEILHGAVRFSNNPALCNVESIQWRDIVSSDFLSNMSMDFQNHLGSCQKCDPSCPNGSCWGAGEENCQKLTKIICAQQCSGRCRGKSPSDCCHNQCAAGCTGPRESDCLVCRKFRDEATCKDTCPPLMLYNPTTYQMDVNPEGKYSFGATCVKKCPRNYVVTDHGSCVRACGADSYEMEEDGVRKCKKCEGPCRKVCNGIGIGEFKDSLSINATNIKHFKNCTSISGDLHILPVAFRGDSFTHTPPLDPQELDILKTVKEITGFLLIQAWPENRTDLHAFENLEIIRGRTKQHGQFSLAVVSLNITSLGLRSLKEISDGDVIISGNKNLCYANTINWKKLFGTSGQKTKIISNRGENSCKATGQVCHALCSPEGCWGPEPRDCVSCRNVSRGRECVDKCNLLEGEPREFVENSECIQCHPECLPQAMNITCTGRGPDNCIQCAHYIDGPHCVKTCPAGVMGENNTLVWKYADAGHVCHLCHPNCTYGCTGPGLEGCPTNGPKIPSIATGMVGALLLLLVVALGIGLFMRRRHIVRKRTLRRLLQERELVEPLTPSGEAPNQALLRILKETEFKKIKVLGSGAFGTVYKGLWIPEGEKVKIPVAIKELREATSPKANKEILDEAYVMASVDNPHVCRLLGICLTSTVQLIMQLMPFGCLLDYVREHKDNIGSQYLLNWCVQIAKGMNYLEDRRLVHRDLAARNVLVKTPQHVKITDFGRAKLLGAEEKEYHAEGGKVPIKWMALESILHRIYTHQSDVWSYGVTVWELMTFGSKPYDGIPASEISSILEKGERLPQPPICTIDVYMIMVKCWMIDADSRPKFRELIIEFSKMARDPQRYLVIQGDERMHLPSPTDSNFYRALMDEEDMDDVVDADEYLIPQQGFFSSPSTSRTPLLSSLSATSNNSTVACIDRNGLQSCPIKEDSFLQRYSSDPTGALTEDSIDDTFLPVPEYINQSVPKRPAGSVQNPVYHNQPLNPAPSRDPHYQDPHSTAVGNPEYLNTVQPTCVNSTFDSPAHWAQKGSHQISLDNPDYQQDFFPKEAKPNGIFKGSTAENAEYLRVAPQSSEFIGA
Sequence of Rho-associated protein kinase 1 (Homo sapiens) (Q13464 2-1354 limits assumed): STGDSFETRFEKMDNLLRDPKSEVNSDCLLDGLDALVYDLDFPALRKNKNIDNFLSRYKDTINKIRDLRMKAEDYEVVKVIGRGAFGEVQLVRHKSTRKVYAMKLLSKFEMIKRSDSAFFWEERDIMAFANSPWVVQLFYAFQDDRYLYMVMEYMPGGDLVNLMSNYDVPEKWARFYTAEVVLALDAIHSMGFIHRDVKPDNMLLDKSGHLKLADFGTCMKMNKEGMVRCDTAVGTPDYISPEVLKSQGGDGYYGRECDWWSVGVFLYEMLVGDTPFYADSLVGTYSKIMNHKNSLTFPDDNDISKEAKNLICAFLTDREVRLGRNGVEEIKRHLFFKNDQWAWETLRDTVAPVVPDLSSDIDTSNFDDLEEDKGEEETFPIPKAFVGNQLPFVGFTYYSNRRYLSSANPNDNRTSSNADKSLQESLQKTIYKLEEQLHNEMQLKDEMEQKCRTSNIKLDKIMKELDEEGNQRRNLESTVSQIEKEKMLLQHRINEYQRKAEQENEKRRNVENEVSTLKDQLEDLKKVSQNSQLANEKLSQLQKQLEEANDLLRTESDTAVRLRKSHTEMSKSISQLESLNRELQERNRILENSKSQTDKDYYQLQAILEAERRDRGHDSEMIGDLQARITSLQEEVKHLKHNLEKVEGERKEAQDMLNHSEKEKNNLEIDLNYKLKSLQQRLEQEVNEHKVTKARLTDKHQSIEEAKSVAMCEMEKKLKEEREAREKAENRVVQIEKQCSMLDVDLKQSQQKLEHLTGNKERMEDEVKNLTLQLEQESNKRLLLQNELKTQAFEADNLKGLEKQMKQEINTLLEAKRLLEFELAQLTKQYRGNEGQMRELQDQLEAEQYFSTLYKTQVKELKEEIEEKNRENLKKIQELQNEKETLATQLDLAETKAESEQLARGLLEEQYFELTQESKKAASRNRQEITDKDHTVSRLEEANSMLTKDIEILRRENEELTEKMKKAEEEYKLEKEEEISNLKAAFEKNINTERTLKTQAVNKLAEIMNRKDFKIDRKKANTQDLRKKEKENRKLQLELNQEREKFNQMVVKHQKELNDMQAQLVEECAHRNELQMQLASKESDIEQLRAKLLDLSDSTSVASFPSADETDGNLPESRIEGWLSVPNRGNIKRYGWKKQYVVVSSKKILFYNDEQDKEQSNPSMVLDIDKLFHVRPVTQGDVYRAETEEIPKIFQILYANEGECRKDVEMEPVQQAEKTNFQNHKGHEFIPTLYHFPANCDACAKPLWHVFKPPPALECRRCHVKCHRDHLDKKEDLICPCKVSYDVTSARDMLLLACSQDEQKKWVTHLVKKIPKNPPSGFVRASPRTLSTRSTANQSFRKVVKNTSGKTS
Sequence of RAC-alpha serine/threonine-protein kinase (P31749 whole entry): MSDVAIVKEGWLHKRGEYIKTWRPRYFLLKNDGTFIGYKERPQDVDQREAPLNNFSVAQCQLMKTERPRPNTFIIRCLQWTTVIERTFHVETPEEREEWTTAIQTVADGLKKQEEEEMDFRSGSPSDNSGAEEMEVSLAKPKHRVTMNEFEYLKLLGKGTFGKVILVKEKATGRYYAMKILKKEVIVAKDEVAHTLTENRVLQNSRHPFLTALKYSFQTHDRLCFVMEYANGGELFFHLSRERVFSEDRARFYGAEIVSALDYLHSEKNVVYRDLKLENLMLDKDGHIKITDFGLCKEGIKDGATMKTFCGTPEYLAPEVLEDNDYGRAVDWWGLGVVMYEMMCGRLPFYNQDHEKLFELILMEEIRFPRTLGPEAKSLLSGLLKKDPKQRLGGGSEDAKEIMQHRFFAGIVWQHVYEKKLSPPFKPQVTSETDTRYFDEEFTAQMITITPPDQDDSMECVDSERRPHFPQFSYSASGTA
Sequence of Mitogen-activated protein kinase 9 (P45984 whole entry, looked up): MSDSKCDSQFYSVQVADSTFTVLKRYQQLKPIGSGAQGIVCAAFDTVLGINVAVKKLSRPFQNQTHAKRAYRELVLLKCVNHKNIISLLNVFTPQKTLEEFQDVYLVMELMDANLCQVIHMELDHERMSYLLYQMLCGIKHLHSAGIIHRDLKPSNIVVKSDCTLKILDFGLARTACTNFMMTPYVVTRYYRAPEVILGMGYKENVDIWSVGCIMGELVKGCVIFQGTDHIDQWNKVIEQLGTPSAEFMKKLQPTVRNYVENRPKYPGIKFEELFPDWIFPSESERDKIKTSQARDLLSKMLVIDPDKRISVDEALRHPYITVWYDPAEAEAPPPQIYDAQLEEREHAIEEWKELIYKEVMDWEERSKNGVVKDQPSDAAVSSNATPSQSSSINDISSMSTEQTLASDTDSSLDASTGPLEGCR

With `Cn1cc(-n2cnc3c(NCc4nc5cc(Cl)c(Cl)cc5[nH]4)nc(N4CCOCC4)nc32)cn1`, the % of control in experiment [1] is 5.81%; in [2], 3.58%; in experiment [3], 9.07%; in experiment [4], 1.29%; in experiment [5], 3.08%.

Take `N#Cc1cccc(-c2c[nH]c3ncnc(N4CCOCC4)c23)c1`: the % of inhibition in experiment [6] worked out at 5%.

In experiment [7], `CNC(=O)Nc1ccc(-c2nc(N3CC4CCC(C3)O4)c3cnn(C4CCC5(CC4)OCCO5)c3n2)cc1` gave a % of control of 81%.

As for `CC[C@@H]1[C@H](F)C(=O)N[C@@H]1COc1nccc2cc(C(N)=O)c(OC)cc12` [ZIMLOVISERTIB], the % of inhibition is -6.2% in experiment [8] (at 0.01 µM); 2.9% in experiment [8] (at 0.04 µM); -6.5% in experiment [8] (at 0.2 µM); 12.2% in experiment [8] (at 1 µM); 16.4% in experiment [8] (at 5 µM).

As to `C=CC(=O)Nc1cc(-n2c(=O)ccc3cnc4ccc(-c5ccc(NS(C)(=O)=O)cc5)cc4c32)ccc1C`, the % of control in experiment [9] (at 1 µM) is 100%; in experiment [9] (at 10 µM), 50%.

`CN(C)C/C=C/C(=O)Nc1ccc(C(=O)N2CCCC(Nc3ncc(Cl)c(-c4c[nH]c5ccccc45)n3)C2)cc1` (stereo unspecified): the % of control is 94% in experiment [10] and 47% in experiment [11].

Turning to `COc1cc(Nc2nc(C)cc(-c3cnn4nc(OC)ccc34)n2)cc(C(F)(F)F)c1`, the % of control in experiment [12] came to 85%; in experiment [13], 75%.

Take `Cc1ccc(-c2ccc3c(ccc4sc5c(c43)NC[C@@H](C)NC5=O)n2)cn1`: the % of inhibition in [14] is -13%.

As for `Cc1cc(C)cc([C@@H]2c3cc(C)ccc3NC(=O)CN2C(=O)c2ccc(Br)s2)c1`, the % of activity in [15] (at 1 µM) stood at 98.3%; in [15] (at 10 µM), 94.3%.
